From patent US9480259B2, “Pyrazolopyrans having herbicidal and pharmaceutical properties” (BASF SE, priority 2012, dated 2016)

Biological target: Arabidopsis thaliana SHMT
Assay: SHMT activity assay (ED50 SHMT), coupled with N5,N10-CH2-THF dehydrogenase, NADH at 340 nm
Type: biochemical
Conditions: values given as upper bounds
In short: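 His-tagged SHMT purified on Ni-NTA. NADH formation followed at 340 nm for 30 min; ED50 from inhibition of initial velocity.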

[1] = Table 2, Arabidopsis thaliana SHMT enzyme assay

| Compound | EC50 [1] [nM] | EC50 (Table 2) [nM] |
| --- | --- | --- |
| N#CC1=C(N)Oc2[nH]ncc2C1(c1cc(Cl)cc(-c2cscn2)c1)C1CCC1 (stereo not shown) [Compound 2.339] | < 100 |  |
| N#CC1=C(N)Oc2[nH]ncc2C1(c1cc(C#N)cc(-c2cscn2)c1)C1CCC1 (stereo not shown) [Compound 2.352] | < 100 |  |
| Cc1n[nH]c2c1C(c1cc(-c3nnn[nH]3)cc(-c3nnn[nH]3)c1)(C1CCC1)C(C#N)=C(N)O2 (stereo not shown) [Compound 2.354] | < 10000 |  |
| Cc1n[nH]c2c1C(c1cc(C#N)cc(-c3nnn[nH]3)c1)(C1CCC1)C(C#N)=C(N)O2 (stereo not shown) [Compound 2.357] | < 100 |  |
| N#CC1=C(N)Oc2[nH]ncc2C1(c1cc(Cl)cc(C#N)c1)C1CC1 (stereo not shown) [Compound 2.360] | < 100 |  |
| N#CC1=C(N)Oc2[nH]ncc2C1(c1cc(C#N)cc(C(F)(F)F)c1)C1CC1 (stereo not shown) [Compound 2.361] | < 100 |  |
| Cc1n[nH]c2c1C(c1cc(C#N)cc(C(=O)O)c1)(C1CCC1)C(C#N)=C(N)O2 (stereo not shown) [Compound 2.371] | < 1000 |  |
| N#CC1=C(N)Oc2[nH]ncc2C1(c1cc(C#N)cc(C(=O)O)c1)C1CCC1 (stereo not shown) [Compound 2.372] | < 10000 |  |
| N#CC1=C(N)Oc2[nH]ncc2C1(c1cc(Br)cc(C#N)c1)C1CC=CC1 (stereo not shown) [Compound 2.376] | < 10 |  |
| Cc1n[nH]c2c1C(c1cc(Br)cc(C#N)c1)(C1CC=CC1)C(C#N)=C(N)O2 (stereo not shown) [Compound 2.377] | < 10 |  |
| COc1n[nH]c2c1C(c1cc(Cl)cc(Cl)c1)(C(C)C)C(C#N)=C(N)O2 (stereo not shown) [Compound 2.378] | < 10 |  |
| N#CC1=C(N)Oc2[nH]ncc2C1(c1cc(Br)cc(C#N)c1)C1(F)CC1 (stereo not shown) [Compound 2.380] | < 10 |  |
| Cc1n[nH]c2c1C(c1cc(Cl)cc(C(=O)OCc3ccccc3)c1)(C1CCC1)C(C#N)=C(N)O2 (stereo not shown) [Compound 2.381] | < 10 |  |
| Cc1n[nH]c2c1C(c1cc(Cl)cc(C(=O)O)c1)(C1CCC1)C(C#N)=C(N)O2 (stereo not shown) [Compound 2.382] | < 100 |  |
| Cc1n[nH]c2c1C(c1cc(C#N)cc(C#N)c1)(C1(F)CC1)C(C#N)=C(N)O2 (stereo not shown) [Compound 2.383] | < 10 |  |
| CCOc1n[nH]c2c1C(c1cc(Cl)cc(Cl)c1)(C(C)C)C(C#N)=C(N)O2 (stereo not shown) [Compound 2.384] | < 10 |  |
| COc1n[nH]c2c1C(c1cc(Cl)cc(Cl)c1)(C1CCC1)C(C#N)=C(N)O2 (stereo not shown) [Compound 2.386] | < 10 |  |
| CCOc1n[nH]c2c1C(c1cc(Cl)cc(Cl)c1)(C1CCC1)C(C#N)=C(N)O2 (stereo not shown) [Compound 2.387] | < 100 |  |
| COc1n[nH]c2c1C(c1cc(Br)cc(C#N)c1)(C1CCC1)C(C#N)=C(N)O2 (stereo not shown) [Compound 2.388] | < 10 |  |
| CCOc1n[nH]c2c1C(c1cc(Br)cc(C#N)c1)(C1CCC1)C(C#N)=C(N)O2 (stereo not shown) [Compound 2.389] | < 10 |  |
| COc1n[nH]c2c1C(c1cc(C#N)cc(C(F)(F)F)c1)(C1CCC1)C(C#N)=C(N)O2 (stereo not shown) [Compound 2.390] | < 10 |  |
| CCOc1n[nH]c2c1C(c1cc(C#N)cc(C(F)(F)F)c1)(C1CCC1)C(C#N)=C(N)O2 (stereo not shown) [Compound 2.391] | < 100 |  |

| Compound | EC50 [1] [nM] | EC50 (Table 2) [nM] |
| --- | --- | --- |
| COc1n[nH]c2c1C(c1cc(C#N)cc(C(F)(F)F)c1)(C1CC1)C(C#N)=C(N)O2 (stereo not shown) [Compound 2.392] | < 100 |  |
| CCOc1n[nH]c2c1C(c1cc(C#N)cc(C(F)(F)F)c1)(C1CC1)C(C#N)=C(N)O2 (stereo not shown) [Compound 2.393] | < 1000 |  |
| COc1n[nH]c2c1C(c1cc(Br)cc(C#N)c1)(C1(F)CC1)C(C#N)=C(N)O2 (stereo not shown) [Compound 2.394] | < 100 |  |
| CCOc1n[nH]c2c1C(c1cc(Br)cc(C#N)c1)(C1(F)CC1)C(C#N)=C(N)O2 (stereo not shown) [Compound 2.395] | < 1000 |  |
| CCOc1n[nH]c2c1C(c1cc(C#N)cc(C#N)c1)(C1CCC1)C(C#N)=C(N)O2 (stereo not shown) [Compound 2.397] | < 100 |  |
| Cc1n[nH]c2c1C(c1cc(Cl)cc(OCC#N)c1)(C1CCC1)C(C#N)=C(N)O2 (stereo not shown) [Compound 2.443] |  | < 10 |
| COc1n[nH]c2c1C(c1cc(Cl)cc(OCC#N)c1)(C1CCC1)C(C#N)=C(N)O2 (stereo not shown) [Compound 2.444] |  | < 100 |
| COCOc1cc(Cl)cc(C2(C3CCC3)C(C#N)=C(N)Oc3[nH]nc(C)c32)c1 (stereo not shown) [Compound 2.445] |  | < 10 |
| Cc1n[nH]c2c1C(c1cc(Cl)cc(OCc3nnn[nH]3)c1)(C1CCC1)C(C#N)=C(N)O2 (stereo not shown) [Compound 2.446] |  | < 10 |
| COc1c(F)cc(C2(C3CCC3)C(C#N)=C(N)Oc3[nH]nc(C)c32)cc1F (stereo not shown) [Compound 2.447] |  | < 10 |
| COc1c(F)cc(C2(C3(F)CC3)C(C#N)=C(N)Oc3[nH]nc(C)c32)cc1F (stereo not shown) [Compound 2.448] |  | < 1000 |
| Cc1n[nH]c2c1C(c1cc(F)c(O)c(F)c1)(C1CCC1)C(C#N)=C(N)O2 (stereo not shown) [Compound 2.449] |  | < 100 |
| CC(=O)N(C)c1cc(C#N)cc(C2(C3(F)CC3)C(C#N)=C(N)Oc3[nH]nc(C)c32)c1 (stereo not shown) [Compound 2.451] |  | < 10 |
| Cc1n[nH]c2c1C(c1cc(C#N)cc(N3CCCC3=O)c1)(C1(F)CC1)C(C#N)=C(N)O2 (stereo not shown) [Compound 2.452] |  | < 1000 |
| COC(=O)c1cccc(-c2cc(C#N)cc(C3(C4CCC4)C(C#N)=C(N)Oc4[nH]nc(C)c43)c2)c1 (stereo not shown) [Compound 2.453] |  | < 10 |
| COC(=O)c1ccc(-c2cc(C#N)cc(C3(C4CCC4)C(C#N)=C(N)Oc4[nH]nc(OC)c43)c2)cc1 (stereo not shown) [Compound 2.454] |  | < 1000 |
| COC(=O)c1ccc(-c2cc(C#N)cc(C3(C4CCC4)C(C#N)=C(N)Oc4[nH]nc(C)c43)c2)cc1 (stereo not shown) [Compound 2.455] |  | < 100 |
| COC(=O)c1cccc(-c2cc(Cl)cc(C3(C4CCC4)C(C#N)=C(N)Oc4[nH]nc(C)c43)c2)c1 (stereo not shown) [Compound 2.456] |  | < 10 |
| COC(=O)c1cccc(-c2cc(Cl)cc(C3(C4CCC4)C(C#N)=C(N)Oc4[nH]nc(OC)c43)c2)c1 (stereo not shown) [Compound 2.457] |  | < 10 |
| COC(=O)c1ccc(-c2cc(Cl)cc(C3(C4CCC4)C(C#N)=C(N)Oc4[nH]nc(C)c43)c2)cc1 (stereo not shown) [Compound 2.458] |  | < 100 |
| Cc1n[nH]c2c1C(c1cc(C#N)cc(-c3ccc(O)c(C(F)(F)F)c3)c1)(C1CCC1)C(C#N)=C(N)O2 (stereo not shown) [Compound 2.459] |  | < 10 |
| Cc1n[nH]c2c1C(c1cc(C#N)cc(-c3ccc(C(=O)O)cc3)c1)(C1CCC1)C(C#N)=C(N)O2 (stereo not shown) [Compound 2.460] |  | < 10 |

Now from value to compound:

| EC50 [1] [nM] | EC50 (Table 2) [nM] | Compound |
| --- | --- | --- |
| < 10 |  | Cc1n[nH]c2c1C(c1cc(C#N)cc(-c3ccc(F)cc3)c1)(C1CCC1)C(C#N)=C(N)O2 (stereo not shown) [Compound 2.328] |
| < 10 |  | Cc1n[nH]c2c1C(c1cc(C#N)cc(-c3ccsc3)c1)(C1CCC1)C(C#N)=C(N)O2 (stereo not shown) [Compound 2.329] |
| < 10 |  | COc1c(Cl)cc(C2(C(C)C)C(C#N)=C(N)Oc3[nH]ncc32)cc1Cl (stereo not shown) [Compound 2.330] |
| < 10 |  | COc1c(Cl)cc(C2(C(C)C)C(C#N)=C(N)Oc3[nH]nc(C)c32)cc1Cl (stereo not shown) [Compound 2.331] |
| < 10 |  | Cc1n[nH]c2c1C(c1cc(C#N)cc(-c3cccc(Cl)c3)c1)(C1CCC1)C(C#N)=C(N)O2 (stereo not shown) [Compound 2.332] |
| < 10 |  | Cc1n[nH]c2c1C(c1cc(C#N)cc(-c3ccc(Cl)cc3)c1)(C1CCC1)C(C#N)=C(N)O2 (stereo not shown) [Compound 2.333] |
| < 10 |  | Cc1n[nH]c2c1C(c1cc(Br)cc(C#N)c1)(C(C)C)C(C#N)=C(N)O2 (stereo not shown) [Compound 2.334] |
| < 10 |  | CC(C)C1(c2cc(C#N)cc(C#N)c2)C(C#N)=C(N)Oc2[nH]ncc21 (stereo not shown) [Compound 2.336] |
| < 10 |  | CC(C)C1(c2cc(C#N)cc(C(F)(F)F)c2)C(C#N)=C(N)Oc2[nH]ncc21 (stereo not shown) [Compound 2.337] |
| < 10 |  | Cc1n[nH]c2c1C(c1cc(C#N)cc(C(F)(F)F)c1)(C(C)C)C(C#N)=C(N)O2 (stereo not shown) [Compound 2.338] |
| < 10 |  | Cc1n[nH]c2c1C(c1cc(Cl)cc(Oc3ccc(Cl)cc3)c1)(C1CCC1)C(C#N)=C(N)O2 (stereo not shown) [Compound 2.341] |
| < 10 |  | COc1ccc(Oc2cc(Cl)cc(C3(C4CCC4)C(C#N)=C(N)Oc4[nH]ncc43)c2)cc1 (stereo not shown) [Compound 2.343] |
| < 10 |  | COc1ccc(Oc2cc(Cl)cc(C3(C4CCC4)C(C#N)=C(N)Oc4[nH]nc(C)c43)c2)cc1 (stereo not shown) [Compound 2.344] |
| < 10 |  | Cc1n[nH]c2c1C(c1cc(Cl)cc(C#N)c1)(C(C)C)C(C#N)=C(N)O2 (stereo not shown) [Compound 2.345] |
| < 10 |  | N#CC1=C(N)Oc2[nH]ncc2C1(c1cc(C#N)cc(-c2ccccn2)c1)C1CCC1 (stereo not shown) [Compound 2.348] |
| < 10 |  | Cc1n[nH]c2c1C(c1cc(C#N)cc(-c3cccnc3)c1)(C1CCC1)C(C#N)=C(N)O2 (stereo not shown) [Compound 2.350] |
| < 10 |  | N#CC1=C(N)Oc2[nH]ncc2C1(c1cc(C#N)cc(-c2nccs2)c1)C1CCC1 (stereo not shown) [Compound 2.351] |
| < 10 |  | Cc1n[nH]c2c1C(c1cc(-c3nnn[nH]3)cc(C(F)(F)F)c1)(C1CCC1)C(C#N)=C(N)O2 (stereo not shown) [Compound 2.355] |
| < 10 |  | Cc1n[nH]c2c1C(c1cccc(OC(F)(F)C(F)F)c1)(C1CCC1)C(C#N)=C(N)O2 (stereo not shown) [Compound 2.356] |
| < 10 |  | Cc1n[nH]c2c1C(c1cc(Br)cc(I)c1)(C1CCC1)C(C#N)=C(N)O2 (stereo not shown) [Compound 2.358] |
| < 10 |  | Cc1n[nH]c2c1C(c1cc(Cl)cc(C#N)c1)(C1CC1)C(C#N)=C(N)O2 (stereo not shown) [Compound 2.359] |
| < 10 |  | Cc1n[nH]c2c1C(c1cc(C#N)cc(-c3ccsc3Cl)c1)(C1CCC1)C(C#N)=C(N)O2 (stereo not shown) [Compound 2.363] |
| < 10 |  | Cc1n[nH]c2c1C(c1cc(C#N)cc(-c3cc(Cl)sc3Cl)c1)(C1CCC1)C(C#N)=C(N)O2 (stereo not shown) [Compound 2.364] |
| < 10 |  | Cc1n[nH]c2c1C(c1cc(Br)cc(C#N)c1)(C1CC1)C(C#N)=C(N)O2 (stereo not shown) [Compound 2.365] |
| < 10 |  | Cc1n[nH]c2c1C(c1cc(C#N)cc(C#N)c1)(C1CC1)C(C#N)=C(N)O2 (stereo not shown) [Compound 2.366] |
| < 10 |  | Cc1n[nH]c2c1C(c1cc(C#N)cc(C(F)(F)F)c1)(C1CC=CC1)C(C#N)=C(N)O2 (stereo not shown) [Compound 2.367] |
| < 10 |  | Cc1n[nH]c2c1C(c1cc(Cl)cc(C#N)c1)(C1CC=CC1)C(C#N)=C(N)O2 (stereo not shown) [Compound 2.368] |
| < 10 |  | N#CC1=C(N)Oc2[nH]ncc2C1(c1cc(C#N)cc(C(=O)OCc2ccccc2)c1)C1CCC1 (stereo not shown) [Compound 2.369] |
| < 10 |  | Cc1n[nH]c2c1C(c1cc(C#N)cc(C(=O)OCc3ccccc3)c1)(C1CCC1)C(C#N)=C(N)O2 (stereo not shown) [Compound 2.370] |
